Experimental data taken from patent publication US9725462B2, “Pyridopyrimidine derivatives as protein kinase inhibitors” (Merck Patent GmbH, priority 2012, dated 2017).
pIC50: −log10 of the molar value.

Biological target: T1, SYK (Homo sapiens, UniProt P43405)
T1 construct: 2.5 nM SYK, 400 nM Biotin-Aha-Aha-KEDPDYEWPSAKK
Test: SYK Flash Plate Assay (enzyme assay)
Type: biochemical
Conditions: Syk inhibition
Source text: The following abbreviations refer respectively to the definitions below: • aq (aqueous), h (hour), g (gram), L (liter), mg (milligram), MHz (Megahertz), min. (minute), mm (millimeter), mmol (millimole), mM (millimolar), m.p. (melting point), eq (equivalent), mL (milliliter), L (microliter), ACN (acetonitrile), AcOH (acetic acid), CDCl3 (deuterated chloroform), CD3OD (deuterated methanol), CH3CN (acetonitrile), c-hex (cyclohexane), DCC (dicyclohexyl carbodiimide), DCM (dichloromethane), DIC (diisopropyl carbodiimide), DIEA (diisopropylethyl-amine), DMF (dimethylformamide), DMSO (dimethylsulfoxide), DMSO-d6 (deuterated dimethylsulfoxide), EDC (1-(3-dimethyl-amino-propyl)-3-ethylcarbodiimide), ESI (Electro-spray ionization), EtOAc (ethyl acetate), Et2O (diethyl ether), EtOH (ethanol), HATU (dimethylamino-([1,2,3]triazolo[4,5-b]pyridin-3-yloxy)-methylene]-dimethyl-ammonium hexafluorophosphate), HPLC (High Performance Liquid Chromatography), i-PrOH (2-propanol), K2CO3 (potassium carbonate), LC (Liquid Chromatography), MeOH (methanol), MgSO4 (magnesium sulfate), MS (mass spectrometry), MTBE (Methyl tert-butyl ether), NaHCO3 (sodium bicarbonate), NaBH4 (sodium borohydride), NMM (N-methyl morpholine), NMR (Nuclear Magnetic Resonance), PyBOP (benzotriazole-1-yl-oxy-tris-pyrrolidino-phosphonium hexafluorophosphate), RT (room temperature), Rt (retention time), SPE (solid phase extraction), TBTU (2-(1-H-benzotriazole-1-yl)-1,1,3,3-tetramethyluromium tetrafluoro borate), TEA (triethylamine), TFA (trifluoroacetic acid), THF (tetrahydrofuran), TLC (Thin Layer Chromatography), UV (Ultraviolet). Description of the In Vitro Assays SYK Flash Plate Assay
The kinase assay is performed either as 384-well Flashplate assay (for e.g. Topcount measurement) or as 384-well Image-Flashplate assay (for LEADseeker measurement).
2.5 nM SYK, 400 nM Biotin-Aha-Aha-KEDPDYEWPSAKK
and 10 μM ATP (spiked with 0.3 μCi 33P-ATP/well) are incubated in a total volume of 50 μl (60 mM Hepes, 10 mM MgCl2, 1.2 mM Dithiothreitol, 0.02% Brij35, 0.1% BSA, pH 7.5) with or without test compound for 1 hours at 30° C. The reaction is stopped with 25 μl 200 mM EDTA. After 30 Min at 30° C. the liquid is removed and each well washed thrice with 100 μl 0.9% sodium chloride solution. Non-specific reaction is determined in presence of 0.1 μM Staurosporine. Radioactivity is measured with Topcount (when using Flashplates) or with LEADseeker (when using Image-Flashplates) respectively. Results (e.g. IC50-values) are calculated with program tools provided by the IT-department (e.g. Symyx Assay Explorer, Genedata Screener). In Vivo Assays CIA

Compound	pIC50
N[C@H]1CCCC[C@H]1Nc1ncc2cncc(-c3ccc4[nH]c(=O)[nH]c4c3)c2n1 [Compound A37, 5-[2-((1R,2S)-2-Amino-cyclohexylamino)-pyrido[4,3-d]pyrimidin-8-yl]-1,3-dihydro-benzimidazol-2-one]	4.30 to 6.00
Cc1ncc(-c2c[nH]c3cc(C#N)ccc23)c2nc(N[C@H]3CCCC[C@H]3N)ncc12 (relative stereo) [Compound A85, 3-[2-((cis)-2-amino-cyclohexylamino)-5-methyl-pyrido[4,3-d]pyrimidin-8-yl]-1H-indole-6-carbonitrile]	6.00 to 7.00
